In patent publication US20260042801A1, “COMPOSITIONS AND METHODS FOR DYE-BOUND CYCLIZED PEPTIDES FOR MEDICAL USE” (The Texas A&M University System, priority 2022, published 2026):

Tests used:
TrkC = target: T1, TrkC (Homo sapiens, UniProt Q16288); experiment: Cell-associated fluorescence saturation binding, TrkC-NIH/3T3 cells; conditions: 2.5 h, with and without 0.2 nM NT-3
T1 construct: expressed in transfected cells; host or cells: NIH/3T3 (TrkC-NIH/3T3)
Description: (§1) FIG. 2: 5c(i) binds to TrkB and TrkC receptors. Transfected cell lines that are Trk positive cells (TrkB-HEK293 and TrkC-NIH/3T3) and non-transfected cell lines that are Trk negative cells (HEK293 and NIH/3T3) were seeded approximately 2,000 cells/well in a 96-well plate and incubated for 24 hours. The cells were treated with a serial dilution of compound (0, 10, 25, 50, 100, 200, 500, and 1000 nM) in serum-free media (SFM) with and without A) 0.6 nM of BDNF (TrkB-HEK293 and HEK293) and B) 0.2 nM of NT-3 (TrkC-NIH/3T3 and NIH/3T3) for 2.5 h. After that, the cells were washed with PBS once to remove unbound compounds and dissolved in 1% (w/v) aqueous sodium dodecyl sulfate. Cell-associated fluorescence was then determined by measuring the emission of the resulting solution upon λex (540/25 nm) and λem (620/40 nm) using Agilent BioTek Synergy H4 Hybrid Microplate Reader. Kd was calculated by GraphPad Prism 9 using Binding saturation (One site—Specific binding).
(§2) Transfected cell lines that are Trk positive cells (TrkA-HeLa, TrkB-HEK293, and TrkC-NIH/3T3) and non-transfected cell lines that are Trk negative cells (HeLa, HEK293, and NIH/3T3) were seeded at 2,000 cells/well in a 96-well plate (0.32 cm^2 growth area) and incubated inside a 5% CO2 incubator at 37° C. for 24 hours. […] The dissociation constant (Kd) was calculated using binding saturation (One site—Specific binding).

[1] = system: cells lacking TrkB/TrkC receptors; experiment: Binding and activity in Trk negative cells (HEK293 and NIH/3T3); conditions: non-transfected HEK293 and NIH/3T3
Description: as §1, §2

[2] = system: primary adult cortical astrocytes; experiment: Astrocyte scratch assay (injury model); assay type: cell-based, mouse; conditions: astrocytes from 6-month-old female mice, 48 hours after scratching
Description: FIGS. 5A-5C: 5c(i) reduces injury size. Primary adult cortical astrocytes from 6-month-old female mice were scratched to form the injury model and immediately after were incubated with 5c(i) for 48 hours (5A). Graph represents mean t SEM. Images represent the 5B) Vehicle and 5C) 5000 nM 5c(i) treated groups stained with Phalloidin. Linear regression was conducted to determine statistical significance. N=10. Scale bar=500 μm.
For neuronal cultures, the neuron enriched fraction was added onto plastic bottom (Greiner-Bio, 781091) plates and incubated inside a 5% C02 incubator at 37° C. for 2 days. Pharmaceutical agents were added at the time of cell plating. For astrocyte cultures, the glia fraction was added onto plastic bottom (Greiner-Bio, 781091) plates and incubated inside a 5% C02 incubator at 37° C. for 5 days for 100% confluency to be reached. Then, the astrocytes were scratched to form the scratch assay model and the pharmaceutical agents were added at the time of scratching. 10,000 cells were plated per well with 0.056 cm^2 growth area for both the neuronal and glia cultures.
Cell cultures were fixed with 4% paraformaldehyde (PFA, 15 min) after the completion of the respective in vitro experiment. […]

[3] = Blood-brain and blood-spinal cord barrier penetration after IP administration; assay type: in vivo; conditions: uninjured mouse, IP 60 mg/kg, 1 hour, intrinsic fluorescence
Description: FIG. 6: 5c(i) penetrates the blood-brain and -spinal cord barriers. 4-month-old uninjured female mouse was IP administered 60 mg/kg 5c(i). The mouse was euthanized 1 hour after 5c(i) administration and perfused with PFA. The spinal cord was dissected and sectioned sagittal at 25 μm and stained with NeuN and DAPI. The brain was dissected and sectioned coronal at 50 μm and stained with GFAP and DAPI. 5c(i) was identified through its intrinsic fluorescence. Scale bar=100 μm.
This is highly significant as most drugs cannot penetrate the central nervous system (CNS), resulting in very costly late-stage failures in CNS drug development^94. 5c(i) therefore in specific embodiments can cross the BBB and target the brain, such as through IP administration, for indications relating to brain function, such as AD and stroke. 5c(i) has even higher potential for penetrating the CNS after SCI when permeability is increased^95-97.

T1 sequence (Q16288 32-839, species assumed): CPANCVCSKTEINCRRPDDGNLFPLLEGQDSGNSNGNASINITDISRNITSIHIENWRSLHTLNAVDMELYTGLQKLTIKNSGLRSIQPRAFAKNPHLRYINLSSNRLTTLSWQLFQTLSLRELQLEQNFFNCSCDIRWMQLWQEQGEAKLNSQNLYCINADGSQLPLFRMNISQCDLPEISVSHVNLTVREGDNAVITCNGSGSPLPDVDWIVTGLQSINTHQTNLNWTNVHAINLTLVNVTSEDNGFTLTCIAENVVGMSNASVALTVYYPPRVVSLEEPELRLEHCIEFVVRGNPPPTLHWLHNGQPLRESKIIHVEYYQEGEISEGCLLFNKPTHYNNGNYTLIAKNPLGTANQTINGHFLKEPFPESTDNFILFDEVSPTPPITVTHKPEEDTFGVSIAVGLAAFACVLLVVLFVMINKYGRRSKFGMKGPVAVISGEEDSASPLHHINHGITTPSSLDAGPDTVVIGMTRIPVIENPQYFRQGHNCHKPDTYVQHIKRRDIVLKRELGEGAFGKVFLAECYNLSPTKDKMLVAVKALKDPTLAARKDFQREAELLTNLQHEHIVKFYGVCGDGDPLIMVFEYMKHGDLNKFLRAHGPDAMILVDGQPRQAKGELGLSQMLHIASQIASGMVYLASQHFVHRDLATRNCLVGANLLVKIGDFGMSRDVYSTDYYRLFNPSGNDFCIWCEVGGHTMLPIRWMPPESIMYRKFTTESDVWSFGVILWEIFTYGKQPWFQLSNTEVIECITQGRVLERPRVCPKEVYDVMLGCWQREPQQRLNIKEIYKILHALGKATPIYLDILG

## C-DIRG-C BODIPY® (fluorescent dye) [5c(i)]
TrkC
  affinity for TrkC (Kd): low nanomolar affinity
[1]
  binding and biological activity in cells lacking TrkB/TrkC receptors: lack of binding and biological activity
[2]
  artificial wound closure: closing at an expedited rate
[3]
  penetration of blood-brain barrier (BBB): easily penetrate
  penetration of blood-spinal cord barrier (BSCB): easily penetrate
